Experimental data reported in article PMC10349806 (Nature Communications, 2023).
Where “and” joins values, the source holds several entries; their conditions need not be identical. Equal entries are not always repeated.

Legend:
PfCRT variant E204A = biological target: T1, PfCRT variant E204A (Plasmodium falciparum, UniProt Q9N623, A220S/E204A/I356T/K76T/M74I/N326S/N75E/Q271E/R371I); assay: CQ uptake assay, oocytes expressing E204A; type: cell-based
T1 sequence (Q9N623 1-424 M74I/N75E/K76T/E204A/A220S/Q271E/N326S/I356T/R371I): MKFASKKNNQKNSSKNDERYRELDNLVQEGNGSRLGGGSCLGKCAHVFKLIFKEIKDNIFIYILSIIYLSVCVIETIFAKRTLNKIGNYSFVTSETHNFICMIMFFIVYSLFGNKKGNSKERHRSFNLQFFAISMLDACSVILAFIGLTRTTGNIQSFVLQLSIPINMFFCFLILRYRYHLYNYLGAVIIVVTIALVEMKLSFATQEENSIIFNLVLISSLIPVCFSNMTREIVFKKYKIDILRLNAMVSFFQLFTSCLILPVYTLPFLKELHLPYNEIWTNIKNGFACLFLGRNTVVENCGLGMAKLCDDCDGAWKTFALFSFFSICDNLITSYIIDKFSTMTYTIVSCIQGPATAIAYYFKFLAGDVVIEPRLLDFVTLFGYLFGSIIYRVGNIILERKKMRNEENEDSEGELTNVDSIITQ
Procedure: (§1) Site-directed mutagenesis of PfCRT^Dd2 was performed as described using the megaprimer method with overlap extension[21],[54]. The primer pairs used are listed in Supplementary Table 6. Please note that a codon-optimized and oocyte-adapted version of PfCRT^Dd2 was used[22] (Supplementary Fig. 16). The resulting DNA fragment was cloned into the SP64T expression vector and verified by sequencing.
(§2) Oocytes were obtained as described previously. Briefly, adult (>2 years old) female X. laevis frogs (NASCO) were anesthetized in a cooled solution of ethyl 3-amino benzoate methanesulfonate (0.1%, w/v), followed by a surgical removal of parts of the ovary. The ovary lobes were carefully dissected and small pieces of oocytes were incubated in Ca^2+-free ND96 buffer (96 mM NaCl, 2 mM KCl, 1 mM MgCl2 buffered with 5 mM HEPES/NaOH, pH 7.5) supplemented with collagenase D (0.1%, w/v; Roche), BSA (0.5%, w/v), and 9 mm Na2HPO4 at 18 °C for 14-16 h while gentle shaking. After incubation, the oocytes were carefully washed several times with ND96 buffer (96 mM NaCl, 2 mM KCl, 1.8 mM CaCl2, 1 mM MgCl2 buffered with 5 mM HEPES/NaOH, pH 7.5) supplemented with 100 mg l^−1 gentamycin). Defolliculated and healthy-looking stage V-VI oocytes were manually selected for RNA microinjection. The RNA was generated as following: The codon-optimized sequences of PfCRT variants were cloned into the pSP64T expression vector. After vector linearization using the restriction endonucleases BamHI or SalI (New England Biolabs), transcription was performed using the in vitro SP6 mMessage mMachine Kit (Ambion)[34]. The obtained RNA was kept at −80 °C and diluted with nuclease-free water to a concentration of 0.6 μg μl^−1. Precision-bore glass capillary tubes (3.5-inch glass capillaries; Drummond Scientific Co.) were pulled on a vertical puller (P-87 Flaming/Brown micropipette puller, Sutter Instrument Co.), graduated, and placed on a microinjector (Nanoject II Auto-Nanoliter Injector, Drummond Scientific Co.). 50 nl of nuclease-free water alone (control oocytes) or 50 nl of 0.6 μg μl^−1 RNA were injected under stereomicroscopic control. Injected oocytes were incubated for 46–72 h at 18 °C with twice-daily buffer changes before usage in experiments.
(§3) Drug uptake assays were performed as described previously[21],[22],[24],[34]. […] The direction of radio-labeled drug transport is here from the mostly acidic extracellular solution (pH 4.5 or 6.0, as indicated) into the oocyte cytosol (pH ∼ 7.2), which corresponds to the efflux of drug from the acidic digestive vacuole (pH 5.2) into the parasite cytoplasm (pH 7.2). The topology of PfCRT in the oolemma is such that both the N- and C-terminus face the extracellular milieu[3],[22]. In the parasite, the N- and C-terminus face the lumen of the digestive vacuole. CQ uptake kinetics were performed by incubating oocytes in ND96 buffer adjusted to a pH of 4.5, 5.0, 5.5, or 6.0 and supplemented with 50 nM [^3H]CQ and one of 7 different CQ concentrations (10 µM, 50 µM, 100 µM, 200 µM, 300 µM, 400 µM, 500 µM CQ). The reaction was stopped at the 60 min time point, which is in the linear uptake range[22],[34] (Supplementary Fig. 17). For determination of the amount of drug uptake for each oocyte, the reaction medium was removed and the oocytes were washed three times with 2 ml of ice-cold ND96 buffer. Each oocyte was individually transferred to a scintillation vial containing 5% sodium dodecyl sulfate (200 μl) for lysis. The radioactivity of each sample was measured using a liquid scintillation analyzer Tri-Carb 4910 TR (PerkinElmer). Oocytes that were injected with water instead of RNA were analyzed in parallel, representing the uptake of a drug by diffusion and/or endogenous permeation pathways. The resulting value represents the “background“ level of drug accumulation in oocytes (in-depth discussion in[22]). […]

PfCRT variant E18A = assay: CQ uptake assay, oocytes expressing E18A; type: cell-based, Plasmodium falciparum
Procedure: as §1, §2, §3

PfCRT variant E207C = assay: CQ uptake assay, oocytes expressing E207C; type: cell-based, Plasmodium falciparum
Procedure: as §1, §2, §3

[1] = E204A, 50 µM CQ, 1 h, mean ± SEM
[2] = pH 4.5, single replicates, Fig 1d left
[3] = pH 6.0, single replicates, Fig 1d left
[4] = E18A, 50 µM CQ, 1 h, mean ± SEM
[5] = E207C, 50 µM CQ, 1 h, mean ± SEM

CCN(CC)CCCC(C)Nc1ccnc2cc(Cl)ccc12 (stereo not drawn) [CQ, chloroquine]
Activity at pH 4.5 (PfCRT variant E204A; [1]): 1.43 ± 0.06 pmol h-1 oocyte-1 | Activity at pH 6.0 (PfCRT variant E204A; [1]): 2.98 ± 0.34 pmol h-1 oocyte-1 | R-value (PfCRT variant E204A; E204A, CQ transport at pH 4.5 / pH 6.0): 0.51 ± 0.09 | E204A transport activity pH 4.5 (PfCRT variant E204A; [2]): 1.57 pmol oocyte-1 h-1 and 1.35 pmol oocyte-1 h-1 and 1.36 pmol oocyte-1 h-1 | E204A R-value (PfCRT variant E204A; pH 4.5 vs pH 6.0, Fig 1d left): 0.72 and 0.42 and 0.38 | E204A transport activity pH 6.0 (PfCRT variant E204A; [3]): 2.18 pmol oocyte-1 h-1 and 3.22 pmol oocyte-1 h-1 and 3.54 pmol oocyte-1 h-1 | Activity at pH 4.5 (PfCRT variant E18A; [4]): 1.51 ± 0.34 pmol h-1 oocyte-1 | Activity at pH 6.0 (PfCRT variant E18A; [4]): 2.60 ± 0.53 pmol h-1 oocyte-1 | R-value (PfCRT variant E18A; E18A, CQ transport at pH 4.5 / pH 6.0): 0.57 ± 0.06 | E18A transport activity pH 4.5 (PfCRT variant E18A; [2]): 2.19 pmol oocyte-1 h-1 and 1.60 pmol oocyte-1 h-1 and 0.74 pmol oocyte-1 h-1 | E18A R-value (PfCRT variant E18A; pH 4.5 vs pH 6.0, Fig 1d left): 0.57 and 0.70 and 0.44 | E18A transport activity pH 6.0 (PfCRT variant E18A; [3]): 3.85 pmol oocyte-1 h-1 and 2.27 pmol oocyte-1 h-1 and 1.67 pmol oocyte-1 h-1 | Activity at pH 4.5 (PfCRT variant E207C; [5]): 1.30 ± 0.11 pmol h-1 oocyte-1 | Activity at pH 6.0 (PfCRT variant E207C; [5]): 1.53 ± 0.16 pmol h-1 oocyte-1 | R-value (PfCRT variant E207C; E207C, CQ transport at pH 4.5 / pH 6.0): 0.86 ± 0.09 | E207C transport activity pH 4.5 (PfCRT variant E207C; pH 4.5, individual replicates, Fig 6b): 0.95 pmol oocyte-1 h-1 and 1.34 pmol oocyte-1 h-1 and 1.57 pmol oocyte-1 h-1 and 1.33 pmol oocyte-1 h-1 | E207C transport activity pH 6.0 (PfCRT variant E207C; pH 6.0, individual replicates, Fig 6b): 1.15 pmol oocyte-1 h-1 and 2.00 pmol oocyte-1 h-1 and 1.64 pmol oocyte-1 h-1 and 1.34 pmol oocyte-1 h-1 | E207C R-value (PfCRT variant E207C; ratio of activity pH 4.5 / pH 6.0): 0.83 and 0.67 and 0.96 and 0.99
